Data reported in patent US20250361234A1 (NICO THERAPEUTICS, INC., priority 2022, published 2025).
pIC50: −log10 of the molar value.

Target: T1, full-length SARM1 (FL-SARM1) (Homo sapiens, UniProt Q6SZW1)
T1 sequence (Q6SZW1 28-724): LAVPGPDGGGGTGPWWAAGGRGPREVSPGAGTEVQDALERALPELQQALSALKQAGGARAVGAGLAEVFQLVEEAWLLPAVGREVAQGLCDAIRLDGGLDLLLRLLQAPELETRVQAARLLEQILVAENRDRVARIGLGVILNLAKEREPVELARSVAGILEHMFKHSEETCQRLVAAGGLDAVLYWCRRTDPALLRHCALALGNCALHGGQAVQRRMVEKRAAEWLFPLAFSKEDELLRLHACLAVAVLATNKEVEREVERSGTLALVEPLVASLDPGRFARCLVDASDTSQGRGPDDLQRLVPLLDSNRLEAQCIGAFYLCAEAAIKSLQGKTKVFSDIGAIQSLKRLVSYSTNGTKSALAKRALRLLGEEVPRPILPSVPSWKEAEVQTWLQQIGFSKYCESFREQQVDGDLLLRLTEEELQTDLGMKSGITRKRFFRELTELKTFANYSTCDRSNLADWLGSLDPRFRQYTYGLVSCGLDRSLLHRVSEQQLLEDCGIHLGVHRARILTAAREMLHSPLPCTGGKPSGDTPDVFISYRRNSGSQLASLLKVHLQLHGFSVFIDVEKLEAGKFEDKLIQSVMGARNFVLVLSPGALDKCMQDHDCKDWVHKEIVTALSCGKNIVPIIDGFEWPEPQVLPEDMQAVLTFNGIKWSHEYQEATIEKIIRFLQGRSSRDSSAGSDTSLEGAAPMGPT
Test: FL-SARM1 cellular lysate assay (NAD/NADH-Glo readout of remaining NAD+)
Conditions: SARM1 cellular lysate from transfected HEK293T cells, NAD+ and NMN, 11 point curve; for IC50: Activity (μM); for pIC50: Activity
Method: Preparation of full-length SARM1 (FL-SARM1) lysate: HEK293T cells (ATCC: CRL-3216) were grown on 150 mm TC-treated dishes to 80-90% confluency in complete DMEM (Thermo Fisher: 11965175) supplemented with 10% HI-FBS (VWR: 10802-772), 1× Pen/Strep (Thermo Fisher: 15140122), 1× NEAA (Thermo Fisher: 1140050), 1× glutamax (Thermo Fisher: 35050061), and 1 mM sodium pyruvate (Thermo Fisher: 11360070)) at 37° C. and 5% CO2. One hour prior to transfection, the media was replaced with fresh, 37° C. complete DMEM (20 mL per one 150 mm dish) supplemented with additional 10 mM glucose (Alfa Aesar AAJ60067EQE). Per one 150 mm dish, 30 μg FL-SARM1 (SEQ. ID. 1; cloned in-house) plasmid was dissolved in 1 mL DMEM at ambient temperature and were mixed by inverting the tube 8-10 times. 90 μL of GenJet™ in vitro DNA transfection reagent (Ver2) was dissolved in 1 mL DMEM at ambient temperature and were mixed by inverting the tube 8-10 times. The plasmid and transfection agent solutions were combined, mixed by 8-10 inversions and incubated for 10 minutes at ambient temperature. 2 mL of this transfection mixture was added to each dish containing HEK293T cells as prepared above followed by a gentle mixing of 4-5 horizontal rotations. The dishes were incubated at 37° C. and 5% CO2 for 24 h. The dishes were removed from the incubator, the medium was aspirated and the cells were scraped off using cell scrapers in ice-cold 1× PBS (5 mL/dish, Thermo Fisher Scientific 10010023). The collected cells were centrifuged at 300 g for 5 minutes at 4° C. The supernatant was aspirated and the pellet was frozen at −80° C. until needed. The cell pellet from 30 dishes was dissolved in 30 mL 1× PBS supplemented with 4 tablets of Complete, Mini EDTA-free protease inhibitor cocktail at 4° C. This mixture was sonicated on ice for 10 minutes at 50% amplitude with a 1 second on/1 second off interval using a Model 120 sonicator (Thermo Fisher Scientific, FB120110). The lysate was centrifuged at 16000 g for 10 minutes at 4° C.
To a white 384-well Proxiplate (PerkinElmer, PE-6008280) was added 50 nL/well of a DMSO solution containing test compounds followed by 7.5 mL/well of a 0.067 mg/mL solution of SARM1 cellular lysate in reaction buffer (DPBS containing CHAPSO (0.1%) and fatty acid free BSA (0.032%)). The plate was centrifuged for 1 minute at 1000 RPM and then placed in an incubator at 23° C. for 15 minutes. To the wells were added 2.5 mL/well of a solution containing 40 mM NAD^+ and 4 mM NMN in reaction buffer. The plate was centrifuged for 1 min at 1000 RPM, the plate was sealed and placed in an incubator at 23° C. for 3.5 hours before adding 3.5 mL/well of NAD/NADH-Glo™ solution (preparation as described by Promega using the extended detection protocol). The plate was centrifuged for 1 minute at 1000 RPM and then incubated at 23° C. for 20 minutes. 1 mL/well of a 3.625 mM solution of menadione in DMSO was added and the plate was centrifuged for 1 minute at 1000 RPM. […] Percent inhibition was calculated as follows:
IC50 values were calculated from an 11 point curve using ½ log dilutions using a four-parameter logistic regression curve fit.

SMILES	IC50 [µM]	pIC50
Cc1nnc([C@]23C[C@H](C)C[C@H](C2)N3C(=O)Nc2cc(-c3cncc(F)c3)c(Cl)cc2F)o1 (single isomer, unassigned) [Example 133, cis-N-(4-chloro-2-fluoro-5-(5-fluoropyridin-3-yl)phenyl)-3-methyl-1-(5-methyl-1,3,4-oxadiazol-2-yl)-6-azabicyclo[3.1.1]heptane-6-carboxamide]	38	< 5.00
Cc1nnc([C@]23C[C@H](C)C[C@H](C2)N3C(=O)Nc2cc(-c3cncc(F)c3)c(C)cc2F)o1 (single isomer, unassigned) [Example 124, cis-N-(2-fluoro-5-(5-fluoropyridin-3-yl)-4-methylphenyl)-3-methyl-1-(5-methyl-1,3,4-oxadiazol-2-yl)-6-azabicyclo[3.1.1]heptane-6-carboxamide]	5.5	5.00 to 6.00
Cc1ccc(NC(=O)N2C[C@H]3C[C@@H]2CN3c2ncccn2)cc1-c1cncc(F)c1 [Example 19, (1R,4R)-N-(3-(5-fluoropyridin-3-yl)-4-methylphenyl)-5-(pyrimidin-2-yl)-2,5-diazabicyclo[2.2.1]heptane-2-carboxamide]	19.8	< 5.00
O=C(Nc1ccc(F)c(-c2cncc(F)c2)c1)N1C2CCCC1C2 [Example 74, N-(4-fluoro-3-(5-fluoropyridin-3-yl)phenyl)-6-azabicyclo[3.1.1]heptane-6-carboxamide]	2.8	5.00 to 6.00
COc1cncc(-c2cc(NC(=O)N3[C@@H]4C[C@@H](C)C[C@@]3(c3nnc(C)o3)C4)c(F)cc2C(F)(F)F)c1 (single isomer, unassigned) [Example 122, cis-N-(2-fluoro-5-(5-methoxypyridin-3-yl)-4-(trifluoromethyl)phenyl)-3-methyl-1-(5-methyl-1,3,4-oxadiazol-2-yl)-6-azabicyclo[3.1.1]heptane-6-carboxamide]	10.7	< 5.00
Cc1ccc(NC(=O)N2C[C@@H]3C[C@H]2C[C@H]3OC(F)F)cc1-c1cncc(F)c1 (racemic) [Example 31, cis-5-(difluoromethoxy)-N-(3-(5-fluoropyridin-3-yl)-4-methylphenyl)-2-azabicyclo[2.2.1]heptane-2-carboxamide]	28.6	< 5.00
Cc1ccc(NC(=O)N2C3CCCC2C3)cc1-c1cncc(C#N)c1 [Example 72, N-(3-(5-cyanopyridin-3-yl)-4-methylphenyl)-6-azabicyclo[3.1.1]heptane-6-carboxamide]	0.1	6.00 to 10.00
Cc1ccc(NC(=O)N2C3CCCC2C3)cc1-c1cncc(F)c1 [Example 87, N-(3-(5-fluoropyridin-3-yl)-4-methylphenyl)-6-azabicyclo[3.1.1]heptane-6-carboxamide]	0.1	6.00 to 10.00
Cc1ccc(NC(=O)N2C3CCC2CC3)cc1-c1cncc(F)c1 [Example 97, N-[3-(5-fluoropyridin-3-yl)-4-methylphenyl]-7-azabicyclo[2.2.1]heptane-7-carboxamide]	0.4	6.00 to 10.00
O=C(Nc1ccc(C(F)(F)F)c(-c2cncc(F)c2)c1)N1C2CCCC1C2 [Example 75, N-(3-(5-fluoropyridin-3-yl)-4-(trifluoromethyl)phenyl)-6-azabicyclo[3.1.1]heptane-6-carboxamide]	1	5.00 to 6.00
Cc1ccc(NC(=O)N2C3CCC2(C)CC3)cc1-c1cncc(F)c1 [Example 5, N-(3-(5-fluoropyridin-3-yl)-4-methylphenyl)-1-methyl-7-azabicyclo[2.2.1]heptane-7-carboxamide]	0.3	6.00 to 10.00
Cc1ccc(NC(=O)N2C3CC[C@@H](C(=O)N(C)C)[C@@H]2C3)cc1-c1cncc(F)c1 [Example 34, trans-N^6-(3-(5-fluoropyridin-3-yl)-4-methylphenyl)-N^2,N^2-dimethyl-6-azabicyclo[3.1.1]heptane-2,6-dicarboxamide]	47.3	< 5.00
COc1cncc(-c2cc(NC(=O)N3C4CCCC3C4)ccc2C)c1 [Example 71, N-(3-(5-methoxypyridin-3-yl)-4-methylphenyl)-6-azabicyclo[3.1.1]heptane-6-carboxamide]	0.08	6.00 to 10.00
COC(=O)[C@H]1CCC2C[C@@H]1N2C(=O)Nc1ccc(C)c(-c2cncc(F)c2)c1 [Example 40, cis-methyl 6-((3-(5-fluoropyridin-3-yl)-4-methylphenyl)carbamoyl)-6-azabicyclo[3.1.1]heptane-2-carboxylate]	20.9	< 5.00
Cc1ccc(NC(=O)[C@H]2C[C@H](C3CC3(F)F)C2)cc1-c1cccnc1 (stereo partly drawn) [Example 99, trans-3-(2,2-difluorocyclopropyl)-N-(4-methyl-3-pyridin-3-ylphenyl)cyclobutane-1-carboxamide]	5.1	5.00 to 6.00
O=C(Nc1ccc(CC(F)F)c(-c2cncc(F)c2)c1)N1C2CCCC1C2 [Example 23, N-(4-(2,2-difluoroethyl)-3-(5-fluoropyridin-3-yl)phenyl)-6-azabicyclo[3.1.1]heptane-6-carboxamide]	0.9	6.00 to 10.00
Cc1ccc(NC(=O)[C@H]2C[C@@H](C3CC3(F)F)C2)cc1-c1cccnc1 (stereo partly drawn) [Example 100, cis-3-(2,2-difluorocyclopropyl)-N-(4-methyl-3-pyridin-3-ylphenyl)cyclobutane-1-carboxamide]	1.5	5.00 to 6.00
Cc1ccc(NC(=O)N2C3C[C@H](C)C[C@@H]2C3)cc1-c1cccnc1 [Example 17, cis-3-methyl-N-(4-methyl-3-(pyridin-3-yl)phenyl)-6-azabicyclo[3.1.1]heptane-6-carboxamide]	0.008	6.00 to 10.00
COc1ncccc1-c1cc(NC(=O)N2C3CCCC2C3)ccc1C [Example 68, N-(3-(2-methoxypyridin-3-yl)-4-methylphenyl)-6-azabicyclo[3.1.1]heptane-6-carboxamide]	2.5	5.00 to 6.00
COC[C@H]1CC[C@H]2CC1N2C(=O)Nc1ccc(C)c(-c2cncc(F)c2)c1 [Example 15, cis-N-(3-(5-fluoropyridin-3-yl)-4-methylphenyl)-2-(methoxymethyl)-6-azabicyclo[3.1.1]heptane-6-carboxamide]	1.7	5.00 to 6.00
Cc1nnc([C@]23C[C@H](C)C[C@H](C2)N3C(=O)Nc2ccc(C(F)(F)F)c(-c3cncc(F)c3)c2)o1 (single isomer, unassigned) [Example 121, cis-N-(3-(5-fluoropyridin-3-yl)-4-(trifluoromethyl)phenyl)-3-methyl-1-(5-methyl-1,3,4-oxadiazol-2-yl)-6-azabicyclo[3.1.1]heptane-6-carboxamide]	0.034	6.00 to 10.00
C[C@@H]1CC2C[C@H](C1)N2C(=O)Nc1ccc(C(F)(F)F)c(-c2cncc(F)c2)c1 (single isomer, unassigned) [Example 53, cis-N-(3-(5-fluoropyridin-3-yl)-4-(trifluoromethyl)phenyl)-3-methyl-6-azabicyclo[3.1.1]heptane-6-carboxamide]	0.06	6.00 to 10.00
Cc1ccc(NC(=O)N2C3C[C@H](CF)C[C@@H]2C3)cc1-c1cncc(F)c1 [Example 1, cis-3-(fluoromethyl)-N-(3-(5-fluoropyridin-3-yl)-4-methylphenyl)-6-azabicyclo[3.1.1]heptane-6-carboxamide]	0.06	6.00 to 10.00
Cc1ccc(NC(=O)[C@H]2C[C@](C#N)(C3CC3)C2)cc1-c1cncc(F)c1 [Example 107, cis-3-cyano-3-cyclopropyl-N-[3-(5-fluoropyridin-3-yl)-4-methylphenyl]cyclobutane-1-carboxamide]	38.9	< 5.00
CCO[C@@H]1C[C@@H]2C[C@H](C1)N2C(=O)Nc1ccc(C)c(-c2cncc(F)c2)c1 [Example 2, cis-3-ethoxy-N-(3-(5-fluoropyridin-3-yl)-4-methylphenyl)-6-azabicyclo[3.1.1]heptane-6-carboxamide]	3.3	5.00 to 6.00
Cc1ccc(NC(=O)N2C3CCCC2C3)cc1-c1cncc(Cl)c1 [Example 117, N-[3-(5-chloro-3-pyridyl)-4-methyl-phenyl]-6-azabicyclo[3.1.1]heptane-6-carboxamide]	0.03	6.00 to 10.00
Cc1ccc(NC(=O)N2C3CCCC2C3)cc1-c1cncc(S(C)(=O)=O)c1 [Example 47, N-(4-methyl-3-(5-(methylsulfonyl)pyridin-3-yl)phenyl)-6-azabicyclo[3.1.1]heptane-6-carboxamide]	17	< 5.00
C[C@@H]1CC2C[C@@H](C1)N2C(=O)Nc1ccc(C2CC2)c(-c2cncc(F)c2)c1 (single isomer, unassigned) [Example 50, trans-N-(4-cyclopropyl-3-(5-fluoropyridin-3-yl)phenyl)-3-methyl-6-azabicyclo[3.1.1]heptane-6-carboxamide]	0.2	6.00 to 10.00
